{"source": "patent US4853221A", "about": "“Method for treating non-small cell lung cancer, head and neck cancers and breast cancer” (Warner-Lambert Company, priority 1987, dated 1989)", "key": {"Walker-256": {"test_system": "Walker-256", "experiment": "Inhibition of Walker-256 cell growth in vitro", "assay_type": "cell-based", "conditions": "Mus musculus, 48 h; Murine Walker-256; read-out: ED50 (the source's name)", "experimental": "Two leukemia cell lines (L1210 and L5178Y) and two solid tumor cell lines (Sarcoma 180 and Walker 256) were used in these studies.\n(§1) Logarithmically growing L1210 cells (approximately 3×10^5 cells/ml) were diluted with Fischer's medium (containing 10% horse serum) to an approximate concentration of 5×10^4 cells/ml. Cells were planted in duplicate into 15 ml culture tubes containing either no drug or various amounts of drug, and incubated for 48 hours at 37° C. before being counted.\n(§2) Trimetrexate was also evaluated in a similar manner side-by-side with methotrexate for its effect on the growth of three additional murine cell lines (L5178Y, Sarcoma-180, and Walkler-256) and three human cell lines (acute myelogenous leukemia K-562, T-cell 8402, and B-cell 8392), propagated in vitro."}, "[1]": {"test_system": "human cell lines (K-562, T-cell 8402, B-cell 8392)", "experiment": "Comparison with methotrexate against human cell lines in vitro", "assay_type": "cell-based", "experimental": "as §1, §2"}, "Colon tumor": {"test_system": "Colon tumor", "experiment": "Human tumor cloning system, colon tumors", "assay_type": "cell-based", "conditions": "one hour, 9 specimens", "text": "(§3) The activity of trimetrexate was compared with that of methotrexate in tests with a human tumor cloning system (Latham, et al., Proc. Am. Assoc. Cancer Res., 24: 278 (1983)). The data from these tests appear in Table III were the activities are expressed as the numbers of tumors with 50% or greater reduction in tumor colony forming units after one hour exposure to the drug."}, "human tumor cultures": {"test_system": "human tumor cultures", "experiment": "Human tumor cloning system, all tumors", "assay_type": "cell-based", "conditions": "for Number of Tumors with 50% or Greater Decrease in Tumor Colony Forming Units: Totals, one hour, 54 specimens", "text": "as §3"}, "Colon 38": {"test_system": "Colon 38", "experiment": "Antitumor activity against colon adenocarcinoma 38 in mice", "assay_type": "in vivo, mouse"}, "P388 murine leukemia": {"test_system": "P388 murine leukemia", "experiment": "Schedule dependence against P388 murine leukemia", "assay_type": "in vivo, mouse", "experimental": "In the L1210, P388, and B-16 melanoma models, results are expressed as a percentage of median control survival time. Percentage of increase in survival time and/or cures (30 day survivors) were the parameters used to measure the effectiveness of the agents.\nPercent increase in median life span (% ILS) values appearing in the tables were calculated from the formula; 100×(median life span in days of treated mice minus median life span in days of untreated mice) divided by median life span in days of untreated control mice. That is, % ILS=[100×(T-C)]/C. % T/C and %ILS are directly interconvertible by the formula % ILS=% T/C -100.\nL1210 Leukemic Cells (10^5 /mouse) and P388 leukemic cells (10^6 /mouse)were in the ascites form and were transferred to BD2F1 or CD2F1 mice by intraperitoneal (ip) injection of 0.1 ml of cells taken from animals bearing 6- to 7-day old tumors. Leukemic cells were injected ip one day prior to the start of treatment.\nThe dose schedule dependence of trimetrexate was tested against transplanted P388 leukemia using the protocol outlined above."}, "[2]": {"test_system": "head and neck (squamous) cancers", "experiment": "Phase I clinical trials, head and neck (squamous) cancers", "assay_type": "in vivo, human", "conditions": "single agent", "experimental": "(§4) Several Phase I clinical trials employing trimetrexate in human patients were carried out. In one study, 36 patients were treated with trimetrexate as a single agent at daily doses of 0.5 mg/m^2 /day to 12 mg/m^2 /day administered intravenously for five days.\n(§5) In additional Phase I clinical studies, patients were administered trimetrexate with single intravenous doses ranging between 5 and 450 mg/m^2 and with weekly doses of slightly greater than 100 mg/m^2."}, "cancer of the pancreas": {"test_system": "cancer of the pancreas", "experiment": "Phase I clinical trials, cancer of the pancreas", "assay_type": "in vivo, human", "conditions": "single agent", "experimental": "as §4, §5"}, "[3]": {"test_system": "metastatic squamous cell cancer of the head and neck", "experiment": "Phase II trial, metastatic squamous cell cancer of the head and neck", "assay_type": "in vivo, human", "experimental": "The efficacy and safety of trimetrexate in the treatment of patients with metastatic squamous cell cancer of the head and neck was evaluated in an 11-center Phase II study.\nThe primary sites of disease in the patients included head and neck (not otherwise specified), hypopharynx, floor of the mouth, oropharynx, tongue, and other parts of the mouth, nasal cavity, and larynx.\nPatients were initially treated intravenously with 8 mg/m^2 /day of trimetrexate on Days 1 through 5 of a 21-day treatment cycle. Patients were evaluated after each treatment course and were withdrawn from the study if progressive disease was documented. Patients were eligible to received six courses of treatment if stable disease was documented, or were eligible to receive continued treatment with trimetrexate if a response was documented."}, "dihydrofolate reductase": {"test_system": "dihydrofolate reductase", "experiment": "Inhibition of dihydrofolate reductase", "assay_type": "biochemical"}, "cells in culture": {"test_system": "cells in culture", "experiment": "Concentration reached in cells in culture", "assay_type": "cell-based", "conditions": "compared with methotrexate"}, "[4]": {"conditions": "13 mg/kg, every 3 hours, daily, Days 1, 5, and 9"}, "[5]": {"conditions": "20 mg/kg, every 3 hours, daily, Days 1, 5, and 9"}, "[6]": {"conditions": "30 mg/kg, every 3 hours, daily, Days 1, 5, and 9"}, "[7]": {"conditions": "45 mg/kg, every 3 hours, daily, Days 1, 5, and 9"}}, "data": [{"compound": "COc1cc(NCc2ccc3nc(N)nc(N)c3c2C)cc(OC)c1OC", "note": "[Trimetrexate, 5-methyl-6-[[(3,4,5-trimethoxyphenyl)amino]methyl]-2,4-quinazolinediamine]", "values": [{"measurement": "IC50", "setting": "Walker-256", "result": 5, "unit": "nM"}, {"measurement": "effectiveness relative to methotrexate", "setting": "[1]", "result": "more effective in inhibiting cell growth in vitro than was methotrexate"}, {"measurement": "Number of Tumors with 50% or Greater Decrease in Tumor Colony Forming Units", "setting": "Colon tumor; trimetrexate 0.1 μg/ml", "result": 4}, {"measurement": "Number of Tumors with 50% or Greater Decrease in Tumor Colony Forming Units", "setting": "Colon tumor; trimetrexate 1.0 μg/ml", "result": 4}, {"measurement": "Number of Tumors with 50% or Greater Decrease in Tumor Colony Forming Units", "setting": "human tumor cultures; trimetrexate 0.1 μg/ml", "result": 11}, {"measurement": "Number of Tumors with 50% or Greater Decrease in Tumor Colony Forming Units", "setting": "human tumor cultures; trimetrexate 1.0 μg/ml", "result": 13}, {"measurement": "human tumor cultures sensitive to trimetrexate and resistant to methotrexate", "setting": "human tumor cultures; trimetrexate 0.1 μg/ml, methotrexate 0.3 μg/ml, 8/54", "result": 15, "unit": "%"}, {"measurement": "antitumor activity", "setting": "Colon 38; mouse, in vivo", "result": "good activity"}, {"measurement": "Tumor Weight Inhibition % TWI", "setting": "Colon 38; optimal dose 60 mg/kg (dose range 60-1.88), Sc every 7 days, Days 2-9", "result": 85, "unit": "%"}, {"measurement": "% T/C", "setting": "P388 murine leukemia; [4]", "result": 185, "unit": "%"}, {"measurement": "Weight Change", "setting": "P388 murine leukemia; [4]", "result": 1.0, "unit": "Grams"}, {"measurement": "% T/C", "setting": "P388 murine leukemia; [5]", "result": 194, "unit": "%"}, {"measurement": "Weight Change", "setting": "P388 murine leukemia; [5]", "result": -0.2, "unit": "Grams"}, {"measurement": "% T/C", "setting": "P388 murine leukemia; 22 mg/kg, Days 1 and 9", "result": 164, "unit": "%"}, {"measurement": "Weight Change", "setting": "P388 murine leukemia; 22 mg/kg, Days 1 and 9", "result": 1.8, "unit": "Grams"}, {"measurement": "% T/C", "setting": "P388 murine leukemia; [6]", "result": 203, "unit": "%"}, {"measurement": "Weight Change", "setting": "P388 murine leukemia; [6]", "result": 0.6, "unit": "Grams"}, {"measurement": "% T/C", "setting": "P388 murine leukemia; 33 mg/kg, Days 1 and 9", "result": 169, "unit": "%"}, {"measurement": "Weight Change", "setting": "P388 murine leukemia; 33 mg/kg, Days 1 and 9", "result": 0.8, "unit": "Grams"}, {"measurement": "% T/C", "setting": "P388 murine leukemia; [7]", "result": 212, "unit": "%"}, {"measurement": "Weight Change", "setting": "P388 murine leukemia; [7]", "result": -1.7, "unit": "Grams"}, {"measurement": "% T/C", "setting": "P388 murine leukemia; 50 mg/kg, Days 1 and 9", "result": 166, "unit": "%"}, {"measurement": "Weight Change", "setting": "P388 murine leukemia; 50 mg/kg, Days 1 and 9", "result": 0.3, "unit": "Grams"}, {"measurement": "% T/C", "setting": "P388 murine leukemia; 53 mg/kg, Day 1 only", "result": 100, "unit": "%"}, {"measurement": "% T/C", "setting": "P388 murine leukemia; 53 mg/kg, Days 1, 5, and 9", "result": 116, "unit": "%"}, {"measurement": "Weight Change", "setting": "P388 murine leukemia; 53 mg/kg, Days 1, 5, and 9", "result": 2.9, "unit": "Grams"}, {"measurement": "% T/C", "setting": "P388 murine leukemia; 75 mg/kg, Days 1 and 9", "result": 181, "unit": "%"}, {"measurement": "Weight Change", "setting": "P388 murine leukemia; 75 mg/kg, Days 1 and 9", "result": -2.6, "unit": "Grams"}, {"measurement": "% T/C", "setting": "P388 murine leukemia; 80 mg/kg, Day 1 only", "result": 104, "unit": "%"}, {"measurement": "% T/C", "setting": "P388 murine leukemia; 80 mg/kg, Days 1, 5, and 9", "result": 119, "unit": "%"}, {"measurement": "Weight Change", "setting": "P388 murine leukemia; 80 mg/kg, Days 1, 5, and 9", "result": 1.3, "unit": "Grams"}, {"measurement": "% T/C", "setting": "P388 murine leukemia; 120 mg/kg, Day 1 only", "result": 113, "unit": "%"}, {"measurement": "% T/C", "setting": "P388 murine leukemia; 120 mg/kg, Days 1, 5, and 9", "result": 154, "unit": "%"}, {"measurement": "Weight Change", "setting": "P388 murine leukemia; 120 mg/kg, Days 1, 5, and 9", "result": -2.5, "unit": "Grams"}, {"measurement": "% T/C", "setting": "P388 murine leukemia; 180 mg/kg, Day 1 only", "result": 12, "unit": "%"}, {"measurement": "% T/C", "setting": "P388 murine leukemia; 180 mg/kg, Days 1, 5, and 9", "result": 9, "unit": "%"}, {"measurement": "optimal dose regimen", "setting": "P388 murine leukemia; every three hours on Days 1, 5, and 9, minimal weight loss and maximum life span response", "result": "about 30 mg/kg/injection"}, {"measurement": "patients with favorable responses", "setting": "[2]", "result": "two"}, {"measurement": "patients with favorable responses", "setting": "cancer of the pancreas", "result": "one"}, {"measurement": "patients with partial response", "setting": "[3]; 38 evaluable patients, initial 8 mg/m^2/day iv Days 1-5 of 21-day cycle", "result": "Ten"}, {"measurement": "partial response rate", "setting": "[3]; 95% confidence interval 12-40%, evaluable patients", "result": 26, "unit": "%"}, {"measurement": "patients with stable disease", "setting": "[3]; in vivo", "result": "Nineteen"}, {"measurement": "median duration of response", "setting": "[3]; range 4.1-59+ weeks, ten responders", "result": 12.2, "unit": "weeks"}, {"measurement": "median time to progressive disease", "setting": "[3]; range 9.3-74+ weeks", "result": 19.1, "unit": "weeks"}, {"measurement": "inhibition of dihydrofolate reductase", "setting": "dihydrofolate reductase", "result": "potent inhibitor"}, {"measurement": "concentration reached in cells in culture", "setting": "cells in culture", "result": "higher concentration than methotrexate"}]}]}
